Experimental data from ChEMBL document CHEMBL5042472, “Design, Synthesis, and Biological Evaluation of a Novel Photocaged PI3K Inhibitor toward Precise Cancer Treatment” (J Med Chem, 2021).
Active and inactive are the calls of the source. The rule behind the calls is not given here.

Assays:
BGC-823 = assay: Antiproliferative activity against human BGC-823 cells assessed as reduction in cell viability irradiated with 365 nm of UV for 5 mins and incubated in dark for 96 hrs by MTT assay; format: functional, cell-based; conditions: BGC-823, light or radiation study
[1] = Retention time of the compound by HPLC analysis; format: physicochemical
[2] = Photo stability of compound assessed as release of 2,4-difluoro-N-(2-methoxy-5-(4-methyl-8-(tetrahydro-2H-pyran-4-yloxy)quinazolin-6-yl)pyridin-3-yl)benzenesulfonamide by measuring half life irradiated with 365 nm of UV for 5 min measured by HPLC analysis; format: physicochemical
[3] = Stability of the compound in dark condition at room temperature after 6 month; format: physicochemical; conditions: 4380 h; time 6 months
[4] = target: Phosphatidylinositol 4,5-bisphosphate 3-kinase catalytic subunit alpha isoform (Homo sapiens, UniProt P42336); assay: Inhibition of PI3K alpha (unknown origin) using PIP2 as substrate incubated in dark at room temperature for 1 hr in presence of ATP by ADP-Glo luminescent assay
Chain of Phosphatidylinositol 4,5-bisphosphate 3-kinase catalytic subunit alpha isoform (P42336 whole entry, canonical isoform): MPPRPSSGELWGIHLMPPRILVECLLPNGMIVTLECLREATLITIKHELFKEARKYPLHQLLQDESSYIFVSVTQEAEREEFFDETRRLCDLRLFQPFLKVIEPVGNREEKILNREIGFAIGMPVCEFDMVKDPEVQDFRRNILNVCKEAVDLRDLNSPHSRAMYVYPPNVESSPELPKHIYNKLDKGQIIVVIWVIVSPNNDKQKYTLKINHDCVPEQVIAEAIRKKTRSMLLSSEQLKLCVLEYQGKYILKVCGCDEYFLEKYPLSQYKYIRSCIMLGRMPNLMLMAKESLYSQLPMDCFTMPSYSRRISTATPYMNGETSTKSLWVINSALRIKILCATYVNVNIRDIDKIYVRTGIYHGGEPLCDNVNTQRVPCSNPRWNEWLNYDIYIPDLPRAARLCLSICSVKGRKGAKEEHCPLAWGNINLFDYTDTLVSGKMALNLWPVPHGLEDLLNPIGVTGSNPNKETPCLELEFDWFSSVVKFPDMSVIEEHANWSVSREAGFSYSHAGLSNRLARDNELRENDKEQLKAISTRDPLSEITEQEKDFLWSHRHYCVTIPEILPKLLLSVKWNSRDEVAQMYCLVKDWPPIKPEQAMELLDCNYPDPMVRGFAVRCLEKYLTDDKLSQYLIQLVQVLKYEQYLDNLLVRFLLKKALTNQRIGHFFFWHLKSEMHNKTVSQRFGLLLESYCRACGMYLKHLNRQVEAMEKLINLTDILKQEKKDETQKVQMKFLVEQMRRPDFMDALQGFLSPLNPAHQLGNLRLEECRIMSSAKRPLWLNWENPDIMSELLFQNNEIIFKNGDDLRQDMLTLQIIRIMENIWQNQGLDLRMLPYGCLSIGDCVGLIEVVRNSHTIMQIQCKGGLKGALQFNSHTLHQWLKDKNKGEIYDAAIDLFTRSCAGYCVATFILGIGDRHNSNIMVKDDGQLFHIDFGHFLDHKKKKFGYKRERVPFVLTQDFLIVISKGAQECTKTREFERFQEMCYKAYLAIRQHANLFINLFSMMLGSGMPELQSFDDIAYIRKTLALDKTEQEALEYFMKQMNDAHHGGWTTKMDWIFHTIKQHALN

[5] = target: Phosphatidylinositol 4,5-bisphosphate 3-kinase catalytic subunit beta isoform (Homo sapiens, UniProt P42338); assay: Inhibition of PI3K beta (unknown origin) using PIP2 as substrate incubated in dark at room temperature for 1 hr in presence of ATP by ADP-Glo luminescent assay
Chain of Phosphatidylinositol 4,5-bisphosphate 3-kinase catalytic subunit beta isoform (P42338 whole entry, canonical isoform): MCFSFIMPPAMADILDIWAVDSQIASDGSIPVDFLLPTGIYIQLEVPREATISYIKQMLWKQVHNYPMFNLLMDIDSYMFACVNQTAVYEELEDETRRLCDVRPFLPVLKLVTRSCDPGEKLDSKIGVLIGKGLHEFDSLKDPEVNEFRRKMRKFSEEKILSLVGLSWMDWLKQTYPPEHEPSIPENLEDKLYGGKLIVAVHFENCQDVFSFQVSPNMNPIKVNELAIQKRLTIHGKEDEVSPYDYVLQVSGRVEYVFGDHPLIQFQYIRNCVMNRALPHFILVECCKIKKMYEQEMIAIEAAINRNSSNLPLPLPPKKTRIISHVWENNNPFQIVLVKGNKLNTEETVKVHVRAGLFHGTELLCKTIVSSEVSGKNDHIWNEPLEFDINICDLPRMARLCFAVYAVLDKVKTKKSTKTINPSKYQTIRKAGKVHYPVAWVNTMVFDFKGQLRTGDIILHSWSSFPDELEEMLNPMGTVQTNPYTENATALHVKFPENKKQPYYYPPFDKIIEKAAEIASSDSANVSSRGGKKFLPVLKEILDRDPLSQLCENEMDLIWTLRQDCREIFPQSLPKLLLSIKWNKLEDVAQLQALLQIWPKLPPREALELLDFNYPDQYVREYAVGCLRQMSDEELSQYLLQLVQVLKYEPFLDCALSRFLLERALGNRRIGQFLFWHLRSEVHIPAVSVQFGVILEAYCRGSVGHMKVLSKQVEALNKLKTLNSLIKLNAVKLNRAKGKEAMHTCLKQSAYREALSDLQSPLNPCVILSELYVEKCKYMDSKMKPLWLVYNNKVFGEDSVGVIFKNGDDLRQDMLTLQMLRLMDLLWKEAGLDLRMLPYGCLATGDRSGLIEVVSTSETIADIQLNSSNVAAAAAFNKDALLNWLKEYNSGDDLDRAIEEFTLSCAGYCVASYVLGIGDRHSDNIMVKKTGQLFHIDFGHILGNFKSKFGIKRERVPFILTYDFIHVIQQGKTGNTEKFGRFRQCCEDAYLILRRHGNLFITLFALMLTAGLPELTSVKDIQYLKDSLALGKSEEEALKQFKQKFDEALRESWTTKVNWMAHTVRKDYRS

MGC-803 = assay: Antiproliferative activity against human MGC-803 cells assessed as reduction in cell viability incubated in dark for 96 hrs by MTT assay; format: functional, cell-based; conditions: MGC-803, 96 h
AGS = assay: Antiproliferative activity against human AGS cells assessed as reduction in cell viability incubated in dark for 96 hrs by MTT assay; format: functional, cell-based
HGC-27 [6] = assay: Antiproliferative activity against human HGC-27 cells assessed as reduction in cell viability incubated in dark for 96 hrs by MTT assay; format: functional, cell-based; conditions: HGC-27, 96 h
HGC-27 [7] = assay: Antiproliferative activity against human HGC-27 cells assessed as reduction in cell viability irradiated with 365 nm of UV for 5 mins and incubated in dark for 96 hrs by MTT assay; format: functional, cell-based; conditions: HGC-27, light or radiation study
MG-63 = assay: Antiproliferative activity against human MG-63 cells assessed as reduction in cell viability incubated in dark for 96 hrs by MTT assay; format: functional, cell-based; conditions: MG-63, 96 h
[8] = Plasma protein binding in rat at 1 uM by LC-MS/MS analysis; format: ADME, cell-free; conditions: read-out: PPB (converted)
[9] = Apparent permeability across basolateral to apical side in human Caco-2 cells at 10 uM incubated for 2 hrs by LC-MS/MS analysis; format: ADME, cell-based
HCT-116 [10] = assay: Inhibition of PI3K/AKT signalling pathway in human HCT-116 cells assessed as downregulation of AKT phosphorylation at […] residue at 100 nM irradiated with 365 nm UV light for 5 mins and incubated for 24 hrs by Western blot; format: cell-based
HCT-116 [11] = assay: Inhibition of PI3K/AKT signalling pathway in human HCT-116 cells assessed as downregulation of […] phosphorylation at 100 nM irradiated with 365 nm UV light for 5 mins and incubated for 24 hrs by Western blot; format: cell-based
HGC-27 [12] = assay: Inhibition of PI3K/AKT signalling pathway in human HGC-27 cells assessed as downregulation of AKT phosphorylation at […] residue at 100 nM irradiated with 365 nm UV light for 5 mins and incubated for 24 hrs by Western blot; format: cell-based
HCT-116 [13] = assay: Inhibition of PI3K/AKT signalling pathway in human HCT-116 cells assessed as downregulation of AKT phosphorylation at Ser473 residue at 100 nM incubated for 24 hrs under dark condition by Western blot; format: cell-based
HCT-116 [14] = assay: Inhibition of PI3K/AKT signalling pathway in human HCT-116 cells assessed as downregulation of AKT phosphorylation at […] residue at 100 nM incubated for 24 hrs under dark condition by Western blot; format: cell-based
HGC-27 [15] = assay: Inhibition of PI3K/AKT signalling pathway in human HGC-27 cells assessed as downregulation of AKT phosphorylation at Ser473 residue at 100 nM incubated for 24 hrs under dark condition by Western blot; format: cell-based
HGC-27 [16] = assay: Induction of cell cycle arrest in human HGC-27 cells assessed as accumulation at G0/G1 phase at 100 nM irradiated with 365 nm UV light for 5 mins and incubated for 24 hrs by flow cytometry; format: functional, cell-based
HCT-116 [17] = assay: Induction of cell cycle arrest in human HCT-116 cells assessed as accumulation at G0/G1 phase at 100 nM irradiated with 365 nm UV light for 5 mins incubated for 24 hrs by flow cytometry; format: functional, cell-based
HCT-116 [18] = assay: Induction of apoptosis in human HCT-116 cells assessed as increase in number of cells in sub-G0 phase at 100 nM incubated for 24 hrs by flow cytometry; format: functional, cell-based
HCT-116 [19] = assay: Inhibition of colony formation in human HCT-116 cells at 100 nM incubated for 24 hrs by crystal violet staining based assay; format: functional, cell-based
HGC-27 [20] = assay: Inhibition of colony formation in human HGC-27 cells at 100 nM incubated for 24 hrs by crystal violet staining based assay; format: functional, cell-based
HCT-116 [21] = assay: Inhibition of colony formation in human HCT-116 cells irradiated with 365 nm of UV light for 5 min at 100 nM incubated for 24 hrs by crystal violet staining based assay; format: functional, cell-based
HGC-27 [22] = assay: Inhibition of colony formation in human HGC-27 cells irradiated with 365 nm of UV light for 5 min at 100 nM incubated for 24 hrs by crystal violet staining based assay; format: functional, cell-based
Homo sapiens [23] = species on record: Homo sapiens; assay: Anticancer activity against KOES-007 patient derived stomach cancer organoid assessed as inhibition of cell growth irradiated with 365 nm of UV light for 2 mins and incubated for 120 hrs; format: functional, tissue-based
Homo sapiens [24] = species on record: Homo sapiens; assay: Anticancer activity against KOES-007 patient derived stomach cancer organoid assessed as inhibition of cell growth irradiated with 365 nm of UV light for 5 mins and incubated for 120 hrs; format: functional, tissue-based
HCT-116 [25] = assay: Anticancer activity against fluorescent labeled human HCT-116 cells xenografted in yolk of zebra embryo assessed as reduction in tumor size by measuring fluorescence density at 31.3 nM irradiated with 365 nm of UV light incubated for 48 hrs by fluorescence microscopic analysis; format: functional, cell-based
[26] = Plasma protein binding in dog at 1 uM by LC-MS/MS analysis; format: ADME, cell-free, Canis lupus familiaris; conditions: read-out: PPB (converted)
[27] = Stability in dog liver microsomes assessed as half life at 1 uM in presence of NADPH measured upto 120 min by LC-MS/MS analysis; format: ADME, Canis lupus familiaris, Microsome

Work on COc1cc(CN(c2cc(-c3cc(OC4CCOCC4)c4ncnc(C)c4c3)cnc2OC)S(=O)(=O)c2ccc(F)cc2F)c([N+](=O)[O-])cc1OC yielded an IC50 (BGC-823) of 103 nM, a Retention_time [1] of 4.7 min and a t1/2 [2] of 5 min. The Stability [3] was “Stable”, the IC50 [4] was 343 nM and the IC50 [5] was 838 nM. For the same compound, the IC50 (MGC-803) was 1740 nM, the IC50 (AGS) was 924 nM and the IC50 (HGC-27 [6]) was 248 nM. It also gave an IC50 (HGC-27 [7]) of 13.8 nM, an IC50 (MG-63) of 1840 nM and a fraction unbound at 1 µM [8] of 0.006. The Papp B→A at 2 h, 10 µM [9] was 1.95 ×10⁻⁶ cm/s, the inhibition (HCT-116 [10]) was “Active” and the inhibition (HCT-116 [11]) was “Active”. The inhibition (HGC-27 [12]) was “Active”, the inhibition (HCT-116 [13]) was “inactive” and the inhibition (HCT-116 [14]) was “inactive”. For the same compound, the inhibition (HGC-27 [15]) was “inactive”, the Activity (HGC-27 [16]) was “Active” and the Activity (HCT-116 [17]) was “inactive”. For the same compound, the inhibition (HCT-116 [18]) was “Active”, the inhibition (HCT-116 [19]) was “inactive” and the inhibition (HGC-27 [20]) was “inactive”. The inhibition (HCT-116 [21]) was “Active”, the inhibition (HGC-27 [22]) was “Active” and the Activity (Homo sapiens [23]) was “Active”. For the same compound, the Activity (Homo sapiens [24]) was “Dose-Dependent Effect”, the Activity (HCT-116 [25]) was “Active” and the fraction unbound at 1 µM [26] was 0.005. It also gave a half-life at 1 µM [27] of 4.62 min.
